Measured values published in US20210105999A1, “COMPOSITIONS FOR PROLONGING THE SURVIVAL AFTER ORTHOTOPIC AND HETEROTOPIC XENOGENEIC HEART, KIDNEY, LUNG OR LIVER TRANSPLANTATIONS” (priority 2018, published 2021).

B1: recombinant rat GH (no. 16343667, ImmunoTools) (ligand, UniProt P01244 27-216, looked up)
chain: FPAMPLSSLFANAVLRAQHLHQLAADTYKEFERAYIPEGQRYSIQNAQAAFCFSETIPAPTGKEEAQQRTDMELLRFSLLLIQSWLGPVQFLSRIFTNSLMFGTSDRVYEKLKDLEEGIQALMQELEDGSPRIGQILKQTYDKFDANMRSDDALLKNYGLLSCFKKDLHKAETYLRVMKCRRFAESSCAF
notes: Used at 0.5 ug/mL as the ligand in ligand immunohistochemistry; Detected with goat anti-rat GH polyclonal antibody; also called growth hormone

Assays:
[1] = tested on: transplanted GT-KO/hCD46/hTM porcine donor heart; experiment: Life-supporting orthotopic pig-to-baboon cardiac xenotransplantation; assay type: in vivo, baboon (Papio Anubis)
Excerpt: Seven juvenile pigs of cross-bred genetic backround (German Landrace and Large White, blood group 0) served as donors for heart xenotransplantation. All organs were homozygous for alpha 1,3-galactosyltransferase knockout (GT-KO), and transgeneic for hCD46/thrombomodulin (hTM) (Revivicor, Blacksburg, Va., USA and Institute for Molecular Animal Breeding and Biotechnology, Gene Center, Faculty of Veterinary Medicine, Ludwig-Maximilians-University, Munich, Germany). Localisation and stability of hCD46/hTM expression was verified post-mortem by immunohistochemistry (FIG. 15). Donor heart function and absence of valvular defects were evaluated 7 days prior to transplantation by echocardiographies. Seven male captive-bred baboons (Papio Anubis, blood groups B and AB) were used as recipients.
The recipient's thorax was opened at midline. Unfractionated heparin (500 IU/kg; Heparin-Natrium-25000-ratiopharm, ratiopharm GmbH, Ulm, Germany) was given and the heart-lung machine connected, using both caval veins and the ascending aorta. Cardiopulmonary bypass commenced and the recipient cooled (30° C. in group I, 34° C. in groups II and III). After crossclamping the ascending aorta, the recipient's heart was excised at the atrial levels, both large vessels were cut. The porcine donor heart was transplanted applying Shumway's and Lower's technique (cf. reference 8).
Immunosuppression was based on Mohiuddin's regimen (cf. reference 5; there were changes as indicated in the following), with C1 esterase inhibitor instead of cobra venom factor for complement inhibition. Induction consisted of anti-CD20 antibody (Mabthera; Roche Pharma AG, Grenzach-Wyhlen, Germany), ATG (Thymoglobuline, Sanofi-Aventis Germany GmbH, Frankfurt, Germany), and either anti-CD40 antibody (mouse/rhesus chimeric IgG4 clone 2C10R4, NIH Nonhuman Primate Reagent Resource, Mass Biologicals, Boston, Mass., USA; courtesy of Keith Reimann) or humanised anti-CD40L pasylated Fab (production: Wacker-Chemie, Burghausen, Germany; purification: XL-protein GmbH, Freising, Germany; courtesy of Arne Skerra, cf. reference 9). Maintenance immunosuppression consisted of MMF (CellCept, Roche, Basle, Switzerland; trough level 2-3 μg/ml), either anti-CD40 antibody or anti-CD40L pasylated Fab, methylprednisolone (Urbasone solubile, Sanofi-Aventis Germany GmbH, Frankfurt, Germany). Anti-inflammatory therapy included II-6-receptor antibody (RoActemra, Roche Pharma AG, Grenzach-Wyhlen, Germany), TNFα inhibitor (Enbrel, Pfizer Pharma GmbH, Berlin, Germany) and II-1-receptor antagonist (Kineret, Swedish Orphan Biovitrum GmbH, Martinsried, Germany). Additive therapy: acetylsalicylic acid (Aspirin, Bayer Vital GmbH, Leverkusen, Germany), unfractionated heparin (Heparin-Natrium-25000-ratiopharm, ratiopharm GmbH, Ulm, Germany), C1 esterase inhibitor (Berinert, CSL Behring GmbH, Hattersheim, Germany), ganciclovir (Cymevene, Roche Pharma AG, Grenzach-Wyhlen, Germany), cefuroxime (Cefuroxim Hikma, Hikma Pharma GmbH, Martinsried, Germany) and epoetin beta (NeoRecormon 5000IU, Roche Pharma AG, Grenzach-Wyhlen, Germany).
Starting from 10 mg/kg/d, methylprednisolone was tapered down 1 mg/kg every 10 days in group I and II; in group III, methylprednisolone was tapered down to 0.1 mg/kg within 19 days. […]
Transthoracic echocardiographies were done in analgosedation at regular intervals using an HP Sonos 7500 (HP Inc., Palo Alto, Calif., USA); midpapillary short axis views were recorded. […]

phosphorylated mTOR = molecular target: T1, phosphorylated mTOR (Sus scrofa, UniProt F1RHR8); experiment: Western blot analysis of myocardium of transplanted hearts, phosphorylated mTOR; assay type: in vivo, pig; settings: experiment 67 (group III), after treatment with temsirolimus, compared to control (Co)
T1 construct: heart samples were homogenized in Laemmli-extraction-buffer; from tissue; host or cells: myocardium of GTKO/hCD46/hTM pig donor hearts transplanted orthotopically into baboons (Papio anubis); control: non-transplanted pig heart
T1 sequence (F1RHR8 1-2548): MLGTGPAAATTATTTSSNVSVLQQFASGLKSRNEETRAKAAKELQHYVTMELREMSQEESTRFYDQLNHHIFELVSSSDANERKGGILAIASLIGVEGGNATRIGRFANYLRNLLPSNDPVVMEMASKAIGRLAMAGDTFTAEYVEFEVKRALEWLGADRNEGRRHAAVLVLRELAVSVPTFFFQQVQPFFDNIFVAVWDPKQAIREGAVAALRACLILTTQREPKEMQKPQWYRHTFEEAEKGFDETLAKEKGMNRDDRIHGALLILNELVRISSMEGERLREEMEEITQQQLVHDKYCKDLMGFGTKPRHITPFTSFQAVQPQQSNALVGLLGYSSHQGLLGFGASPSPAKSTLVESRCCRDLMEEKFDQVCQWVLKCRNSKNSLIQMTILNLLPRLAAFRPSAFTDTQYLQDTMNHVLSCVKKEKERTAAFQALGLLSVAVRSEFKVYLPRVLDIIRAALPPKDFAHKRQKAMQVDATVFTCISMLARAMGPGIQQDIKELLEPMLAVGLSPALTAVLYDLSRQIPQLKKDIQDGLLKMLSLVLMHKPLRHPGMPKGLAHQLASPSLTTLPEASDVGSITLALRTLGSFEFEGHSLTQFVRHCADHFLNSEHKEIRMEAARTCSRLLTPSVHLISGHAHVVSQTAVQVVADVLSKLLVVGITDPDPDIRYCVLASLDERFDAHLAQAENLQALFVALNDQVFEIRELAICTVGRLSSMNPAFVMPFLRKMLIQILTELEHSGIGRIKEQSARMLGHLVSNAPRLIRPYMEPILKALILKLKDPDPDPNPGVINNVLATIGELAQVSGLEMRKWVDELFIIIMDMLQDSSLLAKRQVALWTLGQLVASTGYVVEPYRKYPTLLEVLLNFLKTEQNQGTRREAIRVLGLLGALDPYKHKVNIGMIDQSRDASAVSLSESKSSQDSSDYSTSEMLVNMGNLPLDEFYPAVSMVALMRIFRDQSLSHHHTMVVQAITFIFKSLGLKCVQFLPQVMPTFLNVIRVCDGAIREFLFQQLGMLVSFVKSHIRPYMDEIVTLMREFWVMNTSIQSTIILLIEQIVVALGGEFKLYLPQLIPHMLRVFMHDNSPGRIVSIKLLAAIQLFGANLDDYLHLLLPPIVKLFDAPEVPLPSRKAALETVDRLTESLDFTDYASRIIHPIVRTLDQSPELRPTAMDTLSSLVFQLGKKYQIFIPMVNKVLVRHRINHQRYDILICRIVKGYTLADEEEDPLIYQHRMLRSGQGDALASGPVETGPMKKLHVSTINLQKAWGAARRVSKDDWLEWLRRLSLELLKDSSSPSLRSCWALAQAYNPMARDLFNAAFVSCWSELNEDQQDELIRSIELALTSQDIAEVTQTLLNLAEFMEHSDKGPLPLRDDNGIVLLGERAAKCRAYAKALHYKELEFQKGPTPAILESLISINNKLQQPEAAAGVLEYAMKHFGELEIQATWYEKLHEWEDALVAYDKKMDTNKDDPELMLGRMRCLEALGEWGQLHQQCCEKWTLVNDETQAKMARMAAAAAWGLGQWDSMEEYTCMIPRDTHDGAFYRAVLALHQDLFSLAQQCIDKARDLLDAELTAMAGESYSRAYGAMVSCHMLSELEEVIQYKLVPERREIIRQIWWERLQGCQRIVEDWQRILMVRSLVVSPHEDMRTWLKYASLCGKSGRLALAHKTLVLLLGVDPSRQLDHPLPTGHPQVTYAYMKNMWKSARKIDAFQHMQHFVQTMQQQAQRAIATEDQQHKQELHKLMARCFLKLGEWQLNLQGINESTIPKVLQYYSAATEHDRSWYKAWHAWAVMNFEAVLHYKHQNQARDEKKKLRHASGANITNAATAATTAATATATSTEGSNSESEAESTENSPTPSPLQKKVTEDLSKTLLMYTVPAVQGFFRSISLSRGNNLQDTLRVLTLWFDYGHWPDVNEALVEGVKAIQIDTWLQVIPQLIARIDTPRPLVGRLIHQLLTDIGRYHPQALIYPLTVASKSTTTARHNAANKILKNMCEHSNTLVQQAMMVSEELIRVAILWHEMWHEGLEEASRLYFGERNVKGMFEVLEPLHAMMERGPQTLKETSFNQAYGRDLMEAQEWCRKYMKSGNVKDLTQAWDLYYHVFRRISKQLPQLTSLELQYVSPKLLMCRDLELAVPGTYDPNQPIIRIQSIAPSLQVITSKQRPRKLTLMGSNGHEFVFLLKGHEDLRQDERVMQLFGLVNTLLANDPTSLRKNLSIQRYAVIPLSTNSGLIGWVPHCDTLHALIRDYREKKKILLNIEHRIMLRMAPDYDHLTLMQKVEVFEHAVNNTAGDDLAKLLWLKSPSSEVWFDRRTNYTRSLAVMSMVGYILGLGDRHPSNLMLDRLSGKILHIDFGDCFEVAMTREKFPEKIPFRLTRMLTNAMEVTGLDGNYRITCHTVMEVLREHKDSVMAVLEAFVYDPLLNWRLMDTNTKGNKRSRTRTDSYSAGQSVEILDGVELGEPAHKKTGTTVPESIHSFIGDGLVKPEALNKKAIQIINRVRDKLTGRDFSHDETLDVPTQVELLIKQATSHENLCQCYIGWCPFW
Method: For protein extraction, heart samples were homogenized in Laemmli-extraction-buffer, and the protein content was estimated by the bicinchoninic acid (BCA, Merck, Darmstadt, Germany) protein assay. 20 μg of total protein was separated by 10% SDS-PAGE and transferred to polyvinylidene difluoride (PDVF) membranes (Millipore, Billerica, USA) by electroblotting. Membranes were washed in Tris-buffered saline solution with 0.1% Tween-20 (Merck) (TBS-T) and blocked in 5% w/v fat-free milk powder (Roth, Karlsruhe, Germany) for 1 h at room temperature. Then membranes were washed again in TBS-T and incubated in 5% w/v BSA (Roth) of the appropriate primary antibody overnight at 4° C. […] Bound antibodies were detected using an enhanced chemiluminescence detection reagent (ECL Advance Western Blotting Detection Kit, GE Healthcare, Munich, Germany) and appropriate x-ray films (GE Healthcare). […]
For protein extraction, heart samples were homogenized in Laemmli sample buffer and the protein content was estimated using the bicinchoninic acid (BCA, Merck) protein assay. […] Bound antibodies were detected using an enhanced chemiluminescence detection reagent (ECL Advance Western Blotting Detection Kit, GE Healthcare) and appropriate X-ray films (GE Healthcare). […]

PCNA = experiment: Western blot analysis of myocardium of transplanted hearts, PCNA; assay type: in vivo, pig; settings: experiment 67 (group III), after treatment with temsirolimus, compared to control (Co)
Method: For protein extraction, heart samples were homogenized in Laemmli-extraction-buffer, and the protein content was estimated by the bicinchoninic acid (BCA, Merck, Darmstadt, Germany) protein assay. 20 μg of total protein was separated by 10% SDS-PAGE and transferred to polyvinylidene difluoride (PDVF) membranes (Millipore, Billerica, USA) by electroblotting. Membranes were washed in Tris-buffered saline solution with 0.1% Tween-20 (Merck) (TBS-T) and blocked in 5% w/v fat-free milk powder (Roth, Karlsruhe, Germany) for 1 h at room temperature. Then membranes were washed again in TBS-T and incubated in 5% w/v BSA (Roth) of the appropriate primary antibody overnight at 4° C. The following antibodies were used: rabbit anti-human pmTOR (#5536; Cell Signaling, Frankfurt, Germany) and mouse anti-human PCNA (#2586; Cell Signalling). After washing, membranes were incubated in 5% w/v fat-free milk powder with a horseradish peroxidase labelled secondary antibody for 1 h at room temperature. Bound antibodies were detected using an enhanced chemiluminescence detection reagent (ECL Advance Western Blotting Detection Kit, GE Healthcare, Munich, Germany) and appropriate x-ray films (GE Healthcare). After detection, membranes were stripped (Elution buffer: 2% SDS, 62.5 mM Tris/HCl, pH 6.7 and 100 mM […] for 30 min at 70° C.) and incubated with an appropriate second antibody. […]

[2] = molecular target: T2, porcine growth hormone receptor (GHR) (pig, UniProt P19756 19-638); experiment: ligand immunohistochemistry: rat GH on liver and kidney paraffin sections of control and GHR-KO pigs, detected with anti-rat GH antibody and DAB
T2 construct: whole, on cells; Endogenous receptor in tissue sections of control pigs; GHR-KO pigs (frameshift in exon 3) lack it; also called porcine GHR
T2 sequence (looked up): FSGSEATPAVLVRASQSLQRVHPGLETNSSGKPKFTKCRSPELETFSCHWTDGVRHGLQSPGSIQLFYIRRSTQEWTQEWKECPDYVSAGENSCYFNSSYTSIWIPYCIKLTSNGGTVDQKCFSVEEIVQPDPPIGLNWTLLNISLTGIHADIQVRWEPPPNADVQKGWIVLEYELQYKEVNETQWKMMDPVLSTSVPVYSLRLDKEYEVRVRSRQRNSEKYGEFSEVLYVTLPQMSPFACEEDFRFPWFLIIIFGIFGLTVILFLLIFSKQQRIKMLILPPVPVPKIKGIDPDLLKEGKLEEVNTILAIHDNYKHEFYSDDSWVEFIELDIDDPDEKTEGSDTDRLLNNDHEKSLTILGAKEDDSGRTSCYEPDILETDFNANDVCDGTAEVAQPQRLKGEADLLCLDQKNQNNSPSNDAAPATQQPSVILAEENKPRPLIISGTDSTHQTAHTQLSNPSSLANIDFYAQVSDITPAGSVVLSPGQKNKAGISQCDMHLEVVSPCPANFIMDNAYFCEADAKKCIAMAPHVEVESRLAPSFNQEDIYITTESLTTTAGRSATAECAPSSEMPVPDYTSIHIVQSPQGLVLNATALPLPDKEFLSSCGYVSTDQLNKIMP
Method: Liver and kidney tissue of GHR-KO and control pigs was fixed overnight in 4% formaldehyde and routinely embedded in paraffin. Paraffin sections were dewaxed, and endogenous peroxidase and biotin were blocked with 1% H₂O₂ in Tris-buffered saline (TBS) for 15 min and by using the avidin/biotin blocking kit (no. SP-2001; Vector Laboratories), respectively. After blocking with 0.5% fish gelatin for 30 min, the slides were incubated in 0.5 μg/mL recombinant rat GH (no. 16343667, ImmunoTools) in 0.2% fish gelatin solution overnight at 4° C. They were then washed 3 times for 5 min in TBS and incubated in goat anti-rat GH polyclonal antibody solution (dilution 1:2,400, no. AF1566, R&D Systems) for 6 h at room temperature. After 3 washing steps in TBS (10 min each), the slides were incubated in biotinylated rabbit anti-goat IgG solution (dilution 1:100, no. BA-5000, Vector Laboratories) for 1 h at room temperature, washed 3 times for 10 min in TBS, and finally incubated with horseradish peroxidase-labelled avidin biotin complex for 30 min (no. PK-6100, VECTASTAIN Elite ABC-Peroxidase kit, Vector Laboratories). Immunoreactivity was visualized using 3,3′-diaminobenzidine tetrahydrochloride dihydrate (DAB) (brown color). Nuclear counterstaining was performed with Mayer's hemalum (blue color). […]

[3] = group III, with antihypertensive treatment and early glucocorticoid tapering

Row | Molecule | pathologic findings described for groups I and II (heart and liver failure, graft overgrowth, myocardial hypertrophy) ([1]; group III recipients: antihypertensive treatment, early glucocorticoid weaning and additional temsirolimus medication) | cardiac overgrowth ([1]; group III, combination of blood pressure lowering, early cortisone tapering and temsirolimus) | myocardial hypertrophy of the transplanted heart [1, 3] | obliteration of LV cavity [1, 3] | growth of the cardiac graft (LV mass) after discontinuation of temsirolimus ([1]; recipients 13 and 14, i.v. temsirolimus discontinued on day 175 and on day 161) | phosphorylated mTOR in myocardium (Western blot) (phosphorylated mTOR) | PCNA in myocardium (Western blot) (PCNA) | binding result [2]
1 | CO[C@H]1C[C@@H]2CC[C@@H](C)[C@@](O)(O2)C(=O)C(=O)N2CCCC[C@H]2C(=O)O[C@H]([C@H](C)C[C@@H]2CC[C@@H](OC(=O)C(C)(CO)CO)[C@H](OC)C2)CC(=O)[C@H](C)/C=C(\C)[C@@H](O)[C@@H](OC)C(=O)[C@H](C)C[C@H](C)/C=C/C=C/C=C/1C [temsirolimus] | absent | successfully counteracted | mitigated | omitted | increased growth of the cardiac graft | downregulated | downregulated | –
2 | B1 | – | – | – | – | – | – | – | binds
